Reference: patent US20100298242A1, “MASKING THE TASTE OF COMPOSITONS CONTAINING SALT” (priority 2006, published 2010)
Entries after “also recorded” stand apart in the source; their conditions may differ. Like-named read-outs stand apart in the source and are kept apart here. Where a SMILES comes first, the peptide text is derived from it.

Tests used:
[1] = cited from earlier work; for ADI value/kg KG: acceptable daily intake per kg body weight
[2] = cited from earlier work
[3] = Organoleptic test of ORS solutions with sugars and sugar alcohols; assay type: in vivo
Excerpt: Further sweetening agents were included in a taste testing. An addition of sugars and sugar alcohols has a substantially stronger effect on the total osmolarity of an ORS solution than the addition of sweeteners. […] In addition to the total osmolarity of the effective constituents of the ORS solutions, the values are outside the recommended limits of the WHO recommendations. The quantities to be added are not to be recommended either in relation to the promotion of caries and a laxative effective. […] A taste test was nevertheless carried out with the sugars and sugar alcohols. Complete dissolution took place in water and an organoleptic test took place with the calculated quantities. […] The concentrations of substances were reduced to such an extent that the maximum limit of the osmolarity of 311 mosmol/l was adhered to. […] The addition of sweeteners is to be preferred in each case with regard to side-effects, osmolarity and a complete masking of the salty taste.

[4] = in vivo; cited from earlier work
[5] = Organoleptic check of ORS solutions with a single sweetener; assay type: in vivo; conditions: 200 mg Na-cyclamate or quantity calculated to equal sweetening power per dose
Method: Permitted sweeteners were used for a taste test on ORS solutions. Different concentrations of 10 to 200 mg of the sweetener Na-cyclamate were weighed into the solids mixture. Na-cyclamate is a sodium salt like NaCl. In comparison to other sweeteners, it has a low sweetening power. It was to be found out whether the salty taste of the ORS solution can be masked as a function of concentration by Na-cyclamate. The powder mixtures were weighed out according to the composition of the WHO and dissolved in water according to the instruction.
After organoleptic checking, no salty taste was perceived for the ORS solution with a concentration of 200 mg Na-cyclamate.
The sweeteners were calculated to the standard concentration of the Na-cyclamate. The different sweetening power values of the sweeteners were used as the reference variable.
The calculated quantities of sweeteners were added to the ORS powder mixtures and dissolved in water. The following organoleptic test took place.

[6] = neotam as aspartame derivative; cited from earlier work
[7] = Acceptable daily intake (ADI) value and highest daily doses calculated from it; conditions: child weighing 10 kg; for Highest dose/sachet: four sachets a day
Excerpt: An E number is provided for each sweetener and an ADI value is defined. The “acceptable daily intake” (ADI) value gives the quantity in milligrams per kilogram of body weight (KG) of the substance, which can be taken daily for life without incurring damage.
ADI values (acceptable daily intake) were established for the sweeteners. Using the ADI values, maximum concentrations can be calculated, which may be applied daily by a substance without incurring damage for life. The sweetener addition to the ORS solutions is limited by the ADI values. According to the specialist information for preparation C, the therapeutic maximum dose is four sachets a day for babies and small children. […] The calculation relates to the bodyweight of a child weighing 10 kg.

[8] = ranking of the three sweeteners
Method: In order to use as few sweeteners as possible, two sweeteners from Table 3 are combined with one another in each case. The result is six combinations. […] As a result, the concentration with 40 mg for aspartame was only selected to be half as high as the maximally permissible daily highest limit. In order to ensure a comparability with the other sweeteners, the concentration of aspartame was also retained for the remaining combinations.
Proceeding from the tested concentration ratios of the combinations it was investigated whether the same masking of taste can be achieved by a reduction in dose of the sweeteners.

bladder carcinomas = conditions: cited from earlier work
[9] = relative to saccharose = 1, sweeteners permitted in the European Union
[10] = calculated quantities (equal sweetness to 200 mg Na-cyclamate)
[11] = concentrations reduced so that maximum osmolarity of 311 mosmol/l is adhered to
[12] = sugars and sugar alcohols table

In the case of `OC[C@H]1O[C@H](O[C@]2(CCl)O[C@H](CCl)[C@@H](O)[C@@H]2O)[C@H](O)[C@@H](O)[C@H]1Cl` [Sucralose], the “ADI value/kg KG” value [1] is given as 15 mg mg/kg KG and the Sweetening power [2, 9] is given as 600.

For `OC[C@@H](O)[C@@H](O[C@H]1O[C@H](CO)[C@@H](O)[C@H](O)[C@H]1O)[C@H](O)[C@@H](O)CO` [Maltitol], the “masking of the salty taste of the ORS solutions” value (from here on “masking … of the ORS solutions”) [3, 10] is listed as “masking of the salty taste of the ORS solutions could substantially be achieved”, the “masking … of the ORS solutions” value [3, 11] is listed as “substantially not salty, but very sour and not sweet” and the Sweetening power [2, 12] is listed as 0.9.

In the case of `OC[C@@H](O)[C@@H](O)[C@H](O)[C@@H](O)CO` [Sorbitol], the Sweetening power [2, 12] is listed as 0.6.

For `CC1=CC(=O)NS(=O)(=O)O1` [Acesulfame], the “fate in the human organism (splitting, metabolism, elimination)” value (shortened to “fate in the human organism”) [4] is given as “eliminated unchanged via the kidneys”.

For `COc1ccc(CCC(=O)c2c(O)cc(O[C@@H]3O[C@H](CO)[C@@H](O)[C@H](O)[C@H]3O[C@@H]3O[C@@H](C)[C@H](O)[C@@H](O)[C@H]3O)cc2O)cc1O` [Neohesperidin dihydrochalcone], the “ADI value/kg KG” value [1] is listed as 5 mg mg/kg KG and the Sweetening power [2, 9] is listed as 1000.

For Thaumatin, the “masking of the salty taste of the ORS solution” value [5] is given as “could also no longer be masked”, the “ADI value/kg KG” value [1] is given as 5 mg mg/kg KG and the Sweetening power [2, 9] is given as 3000.

In the case of `COC(=O)[C@H](Cc1ccccc1)NC(=O)[C@H](CC(=O)O)NCCC(C)(C)C` [Neotam], the hydrolytic stability [6] is given as “better hydrolytic stability” and the Sweetening power ([2]; relative to saccharose) is given as “about 10,000”.

For `OC[C@H]1O[C@@](CO)(O[C@H]2O[C@H](CO)[C@@H](O)[C@H](O)[C@H]2O)[C@@H](O)[C@@H]1O` [Saccharose], the “masking … of the ORS solutions” value [3, 10] is listed as “masking of the salty taste of the ORS solutions could substantially be achieved”, the “masking … of the ORS solutions” value [3, 11] is listed as “No masking of taste could be achieved” and the Sweetening power ([2]; relative to saccharose) is listed as “one”. For the same compound, the Sweetening power [2, 12] was 1.

In the case of `O=S(=O)([O-])NC1CCCCC1.[Na+]` [Sodium cyclamate], the “masking of the salty taste of the ORS solution” value [5] is given as “complete masking of taste; also recorded: masking was achieved”, the “ADI value/kg KG” value [1] is given as 11 mg mg/kg KG and the ADI value [1] is given as 11 mg per kg of bodyweight. The “Highest daily dose/10 kg BW” value [7] was 110 mg, the Highest dose/sachet [7] was 27.5 mg and the Sweetening power [2, 9] was 30. For the same compound, the Sweetening power [2, 12] was 30 and the “ability to mask a salty taste” value [8] was “highest”.

For `CC1=CC(=O)NS(=O)(=O)O1` [Acesulfame potassium], the “masking of the salty taste of the ORS solution” value ([5]; listed as acesulfame-K) is given as “salty taste was perceived to a lesser extent; also recorded: masking was achieved”, the “ADI value/kg KG” value [1] is given as 15 mg mg/kg KG and the “Highest daily dose/10 kg BW” value [7] is given as 150 mg. For the same compound, the Highest dose/sachet [7] was 37.5 mg and the Sweetening power [2, 9] was 200.

In the case of `OC[C@@H](O)[C@@H](O)[C@H](O)[C@H](O)CO` [Mannitol], the Sweetening power [2, 12] is given as 0.4.

In the case of `CC1=CC(=O)NS(=O)(=O)O1.COC(=O)[C@H](Cc1ccccc1)NC(=O)[C@@H](N)CC(=O)O` [Aspartame-acesulfame salt] (H-Asp-Phe-OMe), the “masking of the salty taste of the ORS solution” value [5] is listed as “salty taste was perceived to a lesser extent”, the “fate in the human organism” value [4] is listed as “split into its original components aspartame and acesulfame” and the Sweetening power [2, 9] is listed as 350.

In the case of `O=C1NS(=O)(=O)c2ccccc21.[Na]` [Saccharin sodium], the “promotion of the growth of bladder carcinomas” value (bladder carcinomas) is listed as “suspected of promoting the growth of bladder carcinomas”, the “ADI value/kg KG” value [1] is listed as 5 mg mg/kg KG and the “Highest daily dose/10 kg BW” value [7] is listed as 50 mg. For the same compound, the Highest dose/sachet [7] was 12.5 mg and the Sweetening power [2, 9] was 500.

In the case of Isomalt, the Sweetening power [2, 12] is listed as 0.45.

For `OC[C@H]1O[C@@H](O[C@H]2[C@H](O)[C@@H](O)C(O)O[C@@H]2CO)[C@H](O)[C@@H](O)[C@H]1O` (stereo partly drawn) [Lactose], the Sweetening power [2, 12] is listed as 0.2.

For `COC(=O)[C@H](Cc1ccccc1)NC(=O)[C@@H](N)CC(=O)O` [Aspartame] (H-Asp-Phe-OMe), the “masking of the salty taste of the ORS solution” value [5] is listed as “salty taste was perceived to a lesser extent; also recorded: masking was achieved”, the “fate in the human organism” value [4] is listed as “metabolised in the body” and the “ADI value/kg KG” value [1] is listed as 40 mg mg/kg KG. The “Highest daily dose/10 kg BW” value [7] was 400 mg, the Highest dose/sachet [7] was 100.0 mg and the Sweetening power [2, 9] was 200.
